No end group written: not given here.
Experiments:
THP-1 cells [1] = test: Cell morphology (cytospin, Diff-Quick staining); format: cell-based, human; conditions: THP-1 cells that remained viable after 24 hours of treatment
Procedure: FIG. 9. IL1RAP blockade changes in cell morphology of IL1RAP dependent human leukemia cells. THP1 cells were exposed to 100 μM IL1RAP peptide P2, scrambled control peptide (scrambled), peptide buffer (vehicle) or left untreated and evaluated for cell morphology.
1×10^4 THP-1 cells after treatment with peptides were rinsed with PBS and 0.1 ml of cell suspension was cytospun onto polylysine coated slides at minimum speed for 4 minutes in a cytocentrifuge (StatSpin Cytofuge). Slides were stained according to manufacturer's protocol using the Romanowsky staining Diff-Quick (IMEB) kit. Cells were imaged with an Axiovert 200M microscope (Zeiss) and Olympus SZ61 microscope.

[2] = test system: healthy bone marrow mononuclear cells (BMMNC); test: Clonogenic assay in methylcellulose, healthy BMMNC; format: cell-based; conditions: 300 μM for 4 hours, colonies scored at 14 days
Procedure: FIG. 6. […] BMMNC were exposed to scrambled peptide (scrambled), or IL1RAP peptides (P1 and P2) for 4 hours at 300 μM concentrations or left untreated (UT) and evaluated for colony formation capacity in methylcellulose. Colonies were scored at 14 days. The results are expressed as total number of colonies/5×10^4 plated cells. Error bars represent the standard deviation of two replicates.
Cell viability was assessed at the indicated time points by trypan blue staining and manual cell counts. Viable cells were plated in methylcellulose (StemCell technologies H4434, or R&D HSC002SF) at 1000 cells/ml in 6-well plates for cell lines and at 5×10^4 cells/ml for bone marrow mononuclear cells (BMMNC). Cells were incubated at 37° C. and 5% CO2. Colonies were scored after 7 days or 14 days in culture for cell lines or primary cells, respectively.

THP-1 cells [3] = test: Flow cytometric determination of cell death (Annexin V/DAPI); format: cell-based, human; conditions: 300 μM
Procedure: FIG. 8. IL1RAP blockade causes cell death of IL1RAP dependent human leukemia cells. THP1 cells were exposed to 300 μM IL1RAP peptides (P1 and P2), scrambled control peptide (scrambled), peptide buffer (vehicle) or left untreated (UT) and evaluated for cell viability determined by Annexin V/DAPI staining and flow cytometry. The results are expressed as percentage of total cells.
In order to determine viability after peptide treatment, 1×10^4 THP-1 cells were washed with PBS and mixed with pre-diluted PE-conjugated Annexin V (BD Pharmigen) and DAPI. Cells were stained at room temperature for 15 minutes and suspended in 0.2 ml of Annexin V-FLUOS incubation buffer (Roche) for analysis.

Row | Substance | cell morphology (THP-1 cells [1]) | inhibitory effects on healthy control bone marrow mononuclear cells (clonogenic potential) [2] | overall reduction in viability in comparison to the scrambled control peptide (THP-1 cells [3])
1 | LKDMPGRPNERDKVAlTV (LKDMPGRPNERDKVAITV; not fully specified) [scrambled peptide] | maintained a blast-like morphology | – | –
2 | AGDKDRLIVMENKPTRPV [Peptide P1, AGDKDRLIVMENKPTRPV] | – | no inhibitory effects | 14%
3 | AGDKDRLIVMENKPTHGID [Peptide P2, AGDKDRLIVMENKPTHGID] | – | no inhibitory effects | 28%
